Source: US7026330B2, “Methods for treatment of acute lymphocytic leukemia” (The Children's Hospital of Philadelphia, priority 2002, dated 2006)
Entries after “also recorded” stand apart in the source; their conditions may differ. Where two headings read alike, the source gives them in different places.

Experiments:
[1] = cited from earlier work; for trough concentration: Phase III studies with cyclosporine, steroid, or both; for mean time-to-peak concentration: oral
[2] = system: Eμ-RET+ transgenic mice with overt disease; details: for Plt, mean / WBC, mean / Weight, mean: treated group
Experimental: Mice were assessed three times a week for overt signs of disease (enlarged lymph nodes, organomegaly, and anemia). […] Prior to randomization, easily accessible enlarged lymph nodes were biopsied for cell culture and further in vitro study. Peripheral blood for CBC with differential (HemaVet 850FS, Cell Technologies, Oxford, Conn.) and pK studies was obtained by eye bleeding at days 0, 7, 14 and then every other week until death. Peripheral blood as well as single cell suspension from bone marrow, lymph nodes and/or spleen was obtained at death. Weights were monitored three times a week. […] Animals were sacrificed when moribund. Event free survival (EFS) was determined from onset of disease until death, and analyzed using STATA 7.0 (STATA Corporation, College Park, Tex.).

[3] = cited from earlier work
[4] = system: Eμ-RET+ transgenic mouse derived cell lines, #83, T309, #289, #420.2; experiment: MTT proliferation assay, ALL cell lines; assay type: cell-based
Experimental: (§1) Cell Preparation and Cell Culture Conditions. A single cell suspension of bone marrow or lymph nodes from leukemic Eμ-RET+ transgenic mice was prepared [Wasserman, 1998]. These ALL cells were maintained at 37° C. with 5% CO2 in RPMI-1640, L-Glutamine, 10 mM HEPES, 1 mM Sodium Pyruvate, 100 μM non-essential amino acids, 100 U/ml penicillin, 100 μg/ml streptomycin (GibCo-BRL, Rocksville, Md.), 50 μM 2-mercaptoethanol (FisherScientific, Fair Lawn, N.J.)+10% Fetal Calf Serum (HyClone, Logan, Utah)+10% Calf Serum (HyClone, Logan Utah) (C20 media) with 10 U/ml IL-7. Cell surface markers on these cells were determined by flow cytometry as described previously [Wasserman, 1998], and the phenotype was stable in culture over time.
(§2) Proliferation Assays. Cells were cultured in IL-7-free C20 media for 24 hours. […] Cell growth was assayed using methyl-thiazole-tetrazolin (MTT) [Mosmann, 1983]. After removing 50 μl media from each well, 10 μl MTT, 5 mg/ml, (Sigma, St. Louis, Mo.) was added to each sample and incubated for 4 hours. 150 μl 1% HCL/Isopropanol was added to each sample and mixed vigorously until all crystals dissolved. Absorbance was measured at OD595 using microplate spectrophotometer (Benchmark Microplate Reader, Bio-Rad Laboratories, Hercules, Calif.). Results are expressed as mean of absolute absorbance numbertreated sample divided by the mean of absolute absorbance numbercontrol sample. Results >1 indicates proliferation whereas results <1 indicates growth inhibition.

pro-B ALL cell line T309 = experiment: Apoptosis assay (Annexin V-FITC, flow cytometry); assay type: cell-based, mouse; details: 72 hours, baseline 24%
Experimental: Apoptosis Assay. […] Levels of exposed phosphotidylserine on viable cells were measured using the ApoAlert Annexin V detection kit (Clontech, Palo Alto, Calif.). Cells were incubated with FITC-conjugated Annexin V, and log fluorescence intensity was analyzed by flow cytometry using a FACScan cytometer (Becton-Dickinson, Franklin Lakes, N.J.).

[5] = system: steroid refractory severe acute GVHD; details: cited from earlier work
[6] = system: Eμ-RET+ mice with advanced leukemia; experiment: RAD001 in the ALL mouse model; assay type: in vivo; details: daily oral administration
Excerpt: RAD001 inhibits growth >50–90% in ALL cell lines. Daily oral administration of RAD001 extends survival almost 4 fold in Eμ-RET+ mice with advanced leukemia (high white blood count, large nodal masses, and massive hepatosplenomegaly) as compared to untreated littermates.

ALL cell lines = experiment: RAD001 growth suppression in ALL cells in vitro; assay type: cell-based
cell line #83 = experiment: MTT proliferation assay, cell line #83; assay type: cell-based, mouse; details: increasing rmIL-7 0–30 U/ml, no stroma, 4–5 days
Experimental: as §1
(§3) Proliferation Assays. Cells were cultured in IL-7-free C20 media for 24 hours. […] Cell growth was assayed using methyl-thiazole-tetrazolin (MTT) [Mosmann, 1983]. After removing 50 μl media from each well, 10 μl MTT, 5 mg/ml, (Sigma, St. Louis, Mo.) was added to each sample and incubated for 4 hours. […] Absorbance was measured at OD595 using microplate spectrophotometer (Benchmark Microplate Reader, Bio-Rad Laboratories, Hercules, Calif.). Results are expressed as mean of absolute absorbance numbertreated sample divided by the mean of absolute absorbance numbercontrol sample. […]

cell line T309 = experiment: MTT proliferation assay, cell line T309; assay type: cell-based, mouse; details: increasing rmIL-7 0–30 U/ml, no stroma, 4–5 days
Experimental: as §1, §3

[7] = system: phosphor-p70S6 kinase (Thr389); experiment: Immunoblotting of p70S6 kinase in ALL cell line #289; assay type: cell-based, mouse; details: 4 hours
Experimental: Crude Lysate Preparation and Immunoblotting. […] After harvesting, cells were washed with ice cold PBS and then lysed in 100 μl of 1% Triton-X containing protease and phosphatase inhibitors (1 μg/ml apoprotinin, 1 μg/ml leupeptin, 1 mM […], 1 mM NaF, 0.1 mM AEBSF) at 4° C. for 5 minutes. Crude lysates were obtained by centrifugation (12,000 rpm at 4° C. for 20 minutes). Protein concentrations were determined using Bio-Rad Protein assay kit (Bio-Rad Laboratories, Hercules, Calif.). Equal amounts of protein were analyzed by 4–12% Tris-Bis gel electrophoresis and transferred to PVDF membranes (NuPage Invitrogen, Carlsbad, Calif.). Specific proteins were detected with anti-Phosphor-p70S6 kinase (Thr389) and anti-total p70S6 kinase antibodies (Cell Signaling Technologies, Beverly, Mass.) diluted in TTBS (1:500). Immunodetection was performed with horseradish peroxidase-conjugated anti-rabbit IgG and then developed by chemoluminescence (Amersham Pharmacia Biotech, Piscataway, N.J.). Immunoblots were stripped for reprobing by incubating immunoblots in stripping buffer (100 mM 2-mercaptoethanol, 2% sodium dodecyl sulphate, 62.5 mM Tris-HCl pH 6.7) for 30 minutes in 37° C. water bath with occasional agitation. […] Specific proteins were immunoblotted and detected as above.

YES proto-oncogene = experiment: mRNA expression in ALL cells (Affymetrix MG-U74Av4 Genechips); assay type: cell-based; details: addition of IL-7
Excerpt: We found the most profound change in expression in the YES proto-oncogene, a member of the src family of kinases. […] However, the ability of IL-7 to reverse rapamycin-induced growth inhibition may involve other target proteins downstream of p70S6 kinase, such as p27kip1 or cdk2.

ALL cell line #289 = experiment: MTT proliferation assay, cell line #289; assay type: cell-based, mouse
Experimental: as §1, §2

cell line #420.2 = experiment: MTT proliferation assay, cell line #420.2; assay type: cell-based, mouse; details: increasing rmIL-7 0–30 U/ml, no stroma, 4–5 days
Experimental: as §1, §3

#781 cell line = experiment: MTT proliferation assay, cell line #781; assay type: cell-based, mouse; details: increasing rmIL-7 0–30 U/ml, no stroma, 4–5 days
Experimental: as §1, §3

A20 mature B cell line = experiment: Proliferation of mature B cell line A20; assay type: cell-based; details: data not shown
Experimental: as §2

[8] = Mus musculus, 72 h, read-out: inhibition of growth

CO[C@H]1C[C@@H]2CC[C@@H](C)[C@@](O)(O2)C(=O)C(=O)N2CCCC[C@H]2C(=O)O[C@H]([C@H](C)C[C@@H]2CC[C@@H](O)[C@H](OC)C2)CC(=O)[C@H](C)/C=C(\C)[C@@H](O)[C@@H](OC)C(=O)[C@H](C)C[C@H](C)/C=C/C=C/C=C/1C [rapamycin]
trough concentration ([1]; 2 mg/day): 8.58 ± 4.0 ng/mL
trough concentration ([1]; 5 mg/day): 17.3 ± 7.4 ng/mL
elimination of the drug via the GI tract ([1]; human, in vivo): 91%
metabolism ([1]; human, in vivo): intestinal and hepatic CYP3A4 enzyme family
time to near steady-state concentrations ([1]; loading dose of 3 times the maintenance dose, most patients): ≤ 1 days
mean time-to-peak concentration ([1]; healthy subjects): 1 h
mean time-to-peak concentration ([1]; renal transplant recipients): 2 h
typical serum levels of patients ([1]; patients on rapamycin [MacDonald, 2000]): 8 to 12 ng/mL
half-lives ([1]; pediatric patients 5–11 years): shorter
oral clearances ([1]; pediatric patients 5–11 years): greater
dose dependence of concentrations ([1]; stable renal transplant patients, between 3 and 12 mg/m^2): dose proportional
mean hemoglobin and platelet counts, untreated vs rapamycin treated mice ([2]; 5 mg/kg IP daily): not significantly different
time to normalization of WBC after instituting therapy ([2]; 5 mg/kg IP daily): 7 to 10 days
weights of treated versus untreated groups ([2]; 5 mg/kg IP daily): not significantly different
average time from diagnosis to death ([2]; 5 mg/kg IP daily, N=34, untreated 12 days (N=23), p<0.001): 30 days
extension of survival vs untreated mice ([2]; 5 mg/kg IP daily, single agent, advanced disease): ~3 fold
WBC nadir of the typical mouse of FIG. 8 ([2]; after 14 days of rapamycin, WBC 28.8 at presentation): 3.2
Plt, mean ([2]; D0): 695000 µL⁻¹
WBC, mean ([2]; D0): 47800 µL⁻¹
Weight, mean ([2]; D0): 25.6 grams
Plt, mean ([2]; D7): 584000 µL⁻¹
WBC, mean ([2]; D7): 18500 µL⁻¹
Weight, mean ([2]; D14): 28.1 grams
Plt, mean ([2]; at sacrifice): 573000 µL⁻¹
WBC, mean ([2]; at sacrifice): 31000 µL⁻¹
Weight, mean ([2]; at sacrifice): 28.10 grams
Plt, mean ([2]; d21): 526000 µL⁻¹
WBC, mean ([2]; d21): 14300 µL⁻¹
major side effects ([3]; adult organ rejection trials, 2 mg or 5 mg daily with cyclosporine and corticosteroids): thrombocytopenia, hypercholesteremia, hypertriglyceridemia, and diarrhea
toxicities of CTC Grade III and IV ([3]; pediatric kidney transplantation, with corticosteroids and MMF): stomatitis, hypercholesteremia, and hypertriglyceridemia
toxicity in single dosing studies ([3]; single doses ranging from 3–21 mg/m^2): No toxicity
inhibition at 0.001 µg/mL [4, 8]: > 40%
inhibition at 0.1 µg/mL [4, 8]: > 70%
cells labeled with Annexin V (pro-B ALL cell line T309; 1 ng/ml rapamycin): 44%
cells labeled with Annexin V (pro-B ALL cell line T309; 100 ng/ml rapamycin): 51%
discontinuation of drug because of toxicities ([5]; 21 patients): 5 patients
hemolytic uremic syndrome developed ([5]; cyclosporine dose not reduced): 5 patients
most common side effects ([5]; in vivo): thrombocytopenia and neutropenia, elevated serum triglycerides and cholesterol

CO[C@H]1C[C@@H]2CC[C@@H](C)[C@@](O)(O2)C(=O)C(=O)N2CCCC[C@H]2C(=O)O[C@H]([C@H](C)C[C@@H]2CC[C@@H](OCCO)[C@H](OC)C2)CC(=O)[C@H](C)/C=C(\C)[C@@H](O)[C@@H](OC)C(=O)[C@H](C)C[C@H](C)/C=C/C=C/C=C/1C [RAD001, everolimus]
extension of survival vs untreated littermates [6]: ~4 fold
nodal masses [6]: disappearance of nodal masses
peripheral WBC counts [6]: normalization of peripheral WBC counts
growth inhibition (ALL cell lines): 50–90%

B1: rmIL-7: recombinant mouse IL-7 (rmIL-7) (Leinco Technologies, Inc.) (protein, UniProt P10168 26-154, looked up)
Interleukin-7: ECHIKDKEGKAYESVLMISIDELDKMTGTDSNCPNNEPNFFRKHVCDDTKEAAFLNRAARKLKQFLKMNISEEFNVHLLTVSQGTQTLVNCTSKEEKNVKEQKKNDACFLKRLLREIKTCWNKILKGSI
increase in proliferation (cell line #83): ~100 fold
concentration at which the response appears to plateau ([4]; cell lines #83, #781, T309, #289, #420.2): 10–30 U/ml
increase in proliferation (cell line T309): 3.7 fold
effect on rapamycin-induced decrease in phosphor-p70S6 kinase ([7]; 10 U/ml IL-7 + 100 ng/ml rapamycin, listed as IL-7): reversed; also recorded: restored to baseline
p70S6 kinase total protein levels ([7]; 100 ng/ml rapamycin or 10 U/ml IL-7): unchanged
effect on YES expression in rapamycin-treated cells (YES proto-oncogene): completely rescued
increase in proliferation (ALL cell line #289; increasing rmIL-7 0–30 U/ml, no stroma, 4–5 days): 2.2 fold
reversal of rapamycin-induced growth inhibition (ALL cell line #289; rmIL-7 10 U/ml with rapamycin 1 ng/ml, 3 days): completely reverses
reversal of rapamycin's effect on cell growth (ALL cell line #289; rmIL-7 10 U/ml with rapamycin 100 ng/ml, 3 days, only partial): ~80 % of baseline
increase in proliferation (cell line #420.2): 2.2 fold
increase in proliferation (#781 cell line): 16 fold
proliferation (A20 mature B cell line): not affected
